This note sets out measurements from US5712297A, “Piperdine compounds and their preparation and use” (Novo Nordisk A/S, priority 1989, dated 1998).

The structures appear in SMILES notation. Structures can show the parent of a compound that is named as a salt.

This test has as its target muscarinic acetylcholine receptors. Kind of test: Inhibition of specific binding of 3H-Oxotremorine-M (3H-Oxo). More on the design: species or system rat (male Wistar. Conditions: rat cortex; 3H-Oxotremorine 1.0 nM; 20 mM Hepes pH 7.4; 30 min at 25° C. As to the method: The pharmacological properties of the compounds of the present invention (Formula I) can be illustrated by determining their capability to inhibit the specific binding of ^3 H-Oxotremorine-M (^3 H-Oxo).
^3 H-Oxo labels muscarinic receptors in the CNS (with a preference for agonist domaines of the receptors). Three different sites are labelled by 3H-Oxo. These sites have affinity of 1.0, 20 and 3000 nM, respectively. Using the present experimental conditions only the high and medium affinity sites are determined. The inhibitory effects of compounds on ^3 H-Oxo binding reflects the affinity for muscarinic acetylcholine receptors.
All preparations are performed at 0°-4° C. unless otherwise indicated. Fresh cortex (0.1-1 g) from male Wistar rats (150-250 g) is homogenized for 5-10 s in 10 ml 20 mM Hepes pH: 7.4, with an Ultra-Turrax homogenizer. The homogenizer is rinsed with 10 ml of buffer and the combined suspension centrifuged for 15 min at 40,000×g. The pellet is washed three times with buffer. In each step the pellet is homogenized as before in 2×10 ml of buffer and centrifuged for 10 min at 40,000×g. The final pellet is homogenized in 20 mM Hepes pH: 7.4 (100 ml per g of original tissue) and used for binding assay. Aliquots of 0.5 ml is added 25 μl of test solution and 25 μl of ^3 H-Oxotremorine (1.0 nM, final concentration) mixed and incubated for 30 min at 25° C. Non-specific binding is determined in triplicate using Arecoline (1 μg/ml, final concentration) as the test substance. After incubation samples are added 5 ml of ice-cold buffer and poured directly onto Whatman GF/C glass fiber filters under suction and immediately washed 2 times with 5 ml of ice-cold buffer. The amount of radioactivity on the filters are determined by conventional liquid scintillation counting. Specific binding is total binding minus non-specific binding. Test substances are dissolved in 10 ml water (if necessary heated on a steam-bath for less than 5 minutes) at a concentration of 2.2 mg/ml. 25-75% inhibition of specific binding must be obtained before calculation of IC50.
The test value will be given as IC50 (the concentration (ng/ml) of the test substance which inhibits the specific binding of ^3 H-Oxo by 50%). [formula] where Co is specific binding in control assays and Cx is the specific binding in the test assay. (The calculations assume normal mass-action kinetics).

In the case of `CC(C)COc1nsnc1C1=CCCN(C)C1.O=C(O)C(=O)O` [Compound 7, 1,2,5,6-tetrahydro-3-(4-isobutoxy-1,2,5-thiadiazol-3-yl)-1-methylpyridine oxalate], the “Inhibition in vitro OXO BINDING (IC50: concentration which inhibits the specific binding of 3H-Oxo by 50%)” value came to 1.7 ng/mL.
As for `CCCc1nsnc1C1=CCCN(C)C1` [Compound 63, 3-(4-propyl-1,2,5-thiadiazol-3-yl)-1,2,5,6-tetrahydro-1-methylpyridinium oxalate], the figure is 25 ng/mL; as for `COc1nsnc1C1=CCCN(C)C1.O=C(O)C(=O)O` [Compound 1, 1,2,5,6-tetrahydro-3-(4-methoxy-1,2,5-thiadiazol-3-yl)-1-methylpyridine oxalate], 1.5 ng/mL; as for `CCCCCCCc1nsnc1C1=CCCN(C)C1` [Compound 58, 3-(4-heptyl-1,2,5-thiadiazol-3-yl)-1,2,5,6-tetrahydro-1-methylpyridinium oxalate], 50 ng/mL.
On to `CCC#CCCOc1nsnc1C1=CCCN(C)C1.O=C(O)C(=O)O` [Compound 26, 3-(4-(3-hexynyloxy) -1,2,5-thiadiazol-3-yl)-1,2,5,6-tetrahydro-1-methylpyridine oxalate], for which the “Inhibition in vitro OXO BINDING (IC50: concentration which inhibits the specific binding of 3H-Oxo by 50%)” value is 0.4 ng/mL.
For the molecule `CCOCCOc1nsnc1C1=CCCN(C)C1.O=C(O)C(=O)O` [Compound 40, 3-(4-(2-ethoxyethoxy)-1,2,5-thiadiazol-3-yl)-1,2,5,6-tetrahydro-1-methylpyridine oxalate], the “Inhibition in vitro OXO BINDING (IC50: concentration which inhibits the specific binding of 3H-Oxo by 50%)” value stood at 3.7 ng/mL.
As for `CC=CCCCOc1nsnc1C1=CCCN(C)C1.O=C(O)C(=O)O` [Compound 29, 3-(4-(4-hexenyloxy)-1,2,5-thiadiazol-3-yl)-1,2,5,6-tetrahydro-1-methylpyridine oxalate], the figure is 0.6 ng/mL.
Consider `CN1CCC=C(c2nsnc2N2CCOCC2)C1` [Compound 45, 3-(4-morpholino-1,2,5-thiadiazol-3-yl)-1,2,5,6-tetrahydro-1-methylpyridineoxalate], for which the “Inhibition in vitro OXO BINDING (IC50: concentration which inhibits the specific binding of 3H-Oxo by 50%)” value came out at 115 ng/mL.
As to `CCC/C=C\COc1nsnc1C1=CCCN(C)C1.O=C(O)C(=O)O` [Compound 32, cis-3-(4-(2-hexenyloxy)-1,2,5-thiadiazol-3-yl)-1,2,5,6-tetrahydro-1-methylpyridine oxalate], the “Inhibition in vitro OXO BINDING (IC50: concentration which inhibits the specific binding of 3H-Oxo by 50%)” value stood at 1.4 ng/mL.
For `COCCOCCOc1nsnc1C1=CCCN(C)C1.O=C(O)C(=O)O` [Compound 38, 3-(4-(2-(2-methoxyethoxy)ethoxy)-1,2,5-thiadiazol-3-yl)-1,2,5,6-tetrahydro-1-methylpyridine oxalate], the “Inhibition in vitro OXO BINDING (IC50: concentration which inhibits the specific binding of 3H-Oxo by 50%)” value came out at 7.4 ng/mL.
With `CCCCSc1nsnc1C1=CCCN(C)C1.O=C(O)C(=O)O` [Compound 48, 3-(4-butylthio-1,2,5-thiadiazol-3-yl)-1,2,5,6-tetrahydro-1-methylpyridine oxalate], the “Inhibition in vitro OXO BINDING (IC50: concentration which inhibits the specific binding of 3H-Oxo by 50%)” value is 0.6 ng/mL.
Turning to `CCC/C=C/COc1nsnc1C1=CCCN(C)C1.O=C(O)C(=O)O` [Compound 35, trans-3-(4-(2-hexenyloxy)-1,2,5-thiadiazol-3-yl)-1,2,5,6-tetrahydro-1-methylpyridine oxalate], the “Inhibition in vitro OXO BINDING (IC50: concentration which inhibits the specific binding of 3H-Oxo by 50%)” value amounted to 0.6 ng/mL.
As for `CN1CCC=C(c2cnon2)C1.O=C(O)C(=O)O` [Compound 53, 3-(1,2,5-oxadiazol-3-yl)-1,2,5,6-tetrahydro-1-methylpyridine oxalate], the figure is 1.2 ng/mL; as for `C=CCCCOc1nsnc1C1=CCCN(C)C1.O=C(O)C(=O)O` [Compound 23, 3-(4-(4-pentenyloxy)-1,2,5-thiadiazol-3-yl)-1,2,5,6-tetrahydro-1-methylpyridine oxalate], 0.3 ng/mL; as for `CCCCOCCOc1nsnc1C1=CCCN(C)C1.O=C(O)C(=O)O` [Compound 41, 3-(4-(2-butoxyethoxy)-1,2,5-thiadiazol-3-yl)-1,2,5,6-tetrahydro-1-methylpyridine oxalate], 1.3 ng/mL.
As for `CN1CCC=C(c2cnsn2)C1.O=C(O)C(=O)O` [Compound 36, 3-(1,2,5-thiadiazol-3-yl)-1,2,5,6-tetrahydro-1-methylpyridine oxalate], the figure is 0.3 ng/mL; as for `C=CC(C)Oc1nsnc1C1=CCCN(C)C1` (stereo not shown) [Compound 28, 3-(4-(3-butenyl-2-oxy)-1,2,5-thiadiazol-3-yl)-1,2,5,6-tetrahydro-1-methylpyridine oxalate], 1.3 ng/mL.
In the case of `CCN1CCC=C(c2nsnc2Cl)C1.O=C(O)C(=O)O` [Compound 19, 3-(4-chloro-1,2,5-thiadiazol-3-yl)-1-ethyl-1,2,5,6-tetrahydropyridine oxalate], the “Inhibition in vitro OXO BINDING (IC50: concentration which inhibits the specific binding of 3H-Oxo by 50%)” value worked out at 92 ng/mL.
As to `CN1CCC=C(c2nonc2Cl)C1.O=C(O)C(=O)O` [Compound 52, 3-(4-chloro-1,2,5-oxadiazol-3-yl)-1,2,5,6-tetrahydro-1-methylpyridine oxalate], the “Inhibition in vitro OXO BINDING (IC50: concentration which inhibits the specific binding of 3H-Oxo by 50%)” value worked out at 65 ng/mL.
Consider `CSc1nsnc1C1=CCCN(C)C1` [Compound 49, 3-(4-methylthio-1,2,5-thiadiazol-3-yl)-1,2,5,6-tetrahydro-1-methylpyridineoxalate], for which the “Inhibition in vitro OXO BINDING (IC50: concentration which inhibits the specific binding of 3H-Oxo by 50%)” value was found to be 0.7 ng/mL.
Take `CCCCCCOc1nonc1C1=CCCN(C)C1.O=C(O)C(=O)O` [Compound 54, 3-(4-hexyloxy-1,2,5-oxadiazol-3-yl)-1,2,5,6-tetrahydro-1-methylpyridine oxalate]: the “Inhibition in vitro OXO BINDING (IC50: concentration which inhibits the specific binding of 3H-Oxo by 50%)” value is 20 ng/mL.
Next, `CC(C)=CCOc1nsnc1C1=CCCN(C)C1.O=C(O)C(=O)O` [Compound 27, 3-(4-(3-methyl-2-butenyloxy)-1,2,5-thiadiazol-3-yl)-1,2,5,6-tetrahydro-1-methylpyridine oxalate]: 0.8 ng/mL.
Next, `CN1CCC=C(c2nsnc2CC2CC2)C1` [Compound 62, 3-(4-cyclopropylmethyl-1,2,5-thiadiazol-3-yl)-1,2,5,6-tetrahydro-1-methylpyridinium oxalate]: 32 ng/mL.
In the case of `CC#CCOc1nsnc1C1=CCCN(C)C1.O=C(O)C(=O)O` [Compound 12, 3-(4-(2-butynyloxy)-1,2,5-thiadiazol-3-yl)-1,2,5,6-tetrahydro-1-methylpyridine oxalate], the “Inhibition in vitro OXO BINDING (IC50: concentration which inhibits the specific binding of 3H-Oxo by 50%)” value was 0.3 ng/mL.
As for `CCCCCSc1nsnc1C1=CCCN(C)C1` [Compound 66, 3-(4-pentylthio-1,2,5-thiadiazol-3-yl)-1,2,5,6-tetrahydro-1-methylpyridineoxalate], the figure is 1.8 ng/mL.
